# According to patent publication US8178669B2, “Fluorescent probe for peroxynitrite” (The University of Tokyo, priority 2005, dated 2012):
# Columns and labels:
# HeLa cells = test: Imaging of peroxynitrite using Compound 4 in HeLa cells; assay type: cell-based; conditions: HeLa cells loaded with 2 μmol/L Compound 4, 20 minutes; peroxynitrite 10 μmol/L; excitation 470 to 490 nm, emission 510 to 550 nm
# Protocol: HeLa cells were precultured in Dulbecco's modified Eagle's medium (DMEM) supplemented with 10% (v/v) fetal bovine serum, penicillin (100 units/mL), and streptomycin (100 μg/mL) in a 5% CO2 incubator. These HeLa cells were inoculated on a 35 mm glass bottom dish (MatTek Corporation), and further cultured overnight in DMEM. After 24 hours, the medium was removed, and the HeLa cells were washed with Hank's balanced salt solution (HBSS, 2×1 mL). The HeLa cells were added with 2 mL of 2 μmol/L solution of Compound 4 in HBSS (containing 0.01% DMF and 0.01% Cremophor EL (SIGMA) as auxiliary solvents), and incubated at room temperature for 20 minutes. Then, the HeLa cells were washed with HBSS (2×1 mL). Fluorescence images before addition of peroxynitrite and after addition of peroxynitrite at a final concentration of 10 μmol/L were photographed at an excitation wavelength of 470 to 490 nm and fluorescence emission wavelength of 510 to 550 nm.
# Among the photographs, (A) is a differential interference microscope image of HeLa cells loaded with Compound 4, (B) is a pseudo color fluorescence image of fluorescence intensity before addition of peroxynitrite, (C) is a pseudo color fluorescence image of fluorescence intensity after addition of peroxynitrite, and (D) is a fused image of (A) and (B).
# [1] = Reaction of Compound 4 and various reactive oxygen species: hydrogen peroxide; conditions: 10 μmol/L Compound 4, pH 7.4; hydrogen peroxide 1 mmol/L, 3 minutes
# Protocol: (§1) A 10 μmol/L solution of Compound 4 was prepared by diluting a 20 mmol/L solution of Compound 4 in DMF with a 100 mmol/L phosphate buffer (pH 7.4), and used for the test. The prepared solution was treated under the following conditions for 3 minutes (except for (f), for which treatment time was 30 minutes).
# (b) Hydrogen peroxide was added to make a final concentration of 1 mmol/L.
# (§2) After the reaction, change of fluorescence spectrum under each condition was measured to compare reactivities of the compound with (#2) peroxynitrite, (#3) hydrogen peroxide, (#4) singlet oxygen, (#5) hydroxyl radical, (#6) hypochlorite ion, and (#7) nitrogen monoxide.
# [2] = Reaction of Compound 4 and various reactive oxygen species: hydroxyl radical; conditions: 10 μmol/L Compound 4, pH 7.4; hydrogen peroxide 1 mmol/L and iron(II) sulfate 50 μmol/L, 3 minutes
# Protocol: as §1
# (d) Hydrogen peroxide and iron(II) sulfate were added to make final concentrations of 1 mmol/L and 50 μmol/L, respectively.
# as §2
# [3] = Reaction of Compound 4 and various reactive oxygen species: peroxynitrite
# Protocol: as §1
# (a) Peroxynitrite was added to make a final concentration of 10 μmol/L.
# as §2
# [4] = Reaction of Compound 4 and various reactive oxygen species: singlet oxygen; conditions: 10 μmol/L Compound 4, pH 7.4; hydrogen peroxide 1 mmol/L and hypochlorite ions 100 μmol/L, 3 minutes
# Protocol: as §1
# (c) Hydrogen peroxide and hypochlorite ions were added to make final concentrations of 1 mmol/L and 100 μmol/L, respectively.
# as §2
# [5] = Reaction of Compound 4 and various reactive oxygen species: hypochlorite ion; conditions: 10 μmol/L Compound 4, pH 7.4; hypochlorite ions 10 μmol/L, 3 minutes
# Protocol: as §1
# (e) Hypochlorite ions were added to make a final concentration of 10 μmol/L.
# as §2
# [6] = Reaction of Compound 4 and various reactive oxygen species: nitrogen monoxide; conditions: 10 μmol/L Compound 4, pH 7.4; NOC-13 100 μmol/L, 30 minutes
# Protocol: as §1
# (f) NOC-13 (nitrogen monoxide discharging agent, Dojindo Laboratory) was added to make a final concentration of 100 μmol/L.
# as §2
# [7] = Reaction of Compound 4 and peroxynitrite (fluorescence spectrum); conditions: 10 μmol/L Compound 4, 100 mmol/L phosphate buffer pH 7.4; peroxynitrite 1-50 μmol/L; after 60 seconds; excitation 505 nm
# Protocol: A 10 μmol/L solution of Compound 4 was prepared by diluting a 20 mmol/L solution of Compound 4 in DMF with a 100 mmol/L phosphate buffer (pH 7.4). The solution was added with peroxynitrite solutions of 2 mmol/L, 5 mmol/L, 10 mmol/L, 20 mmol/L and 80 mmol/L at peroxynitrite final concentrations of 1, 2, 4, 5, 10, 20 or 50 μmol/L with stirring, and after 60 seconds, fluorescence spectrum was measured (excitation wavelength: 505 nm).
smiles,measurement,setting,value
"CC1=C(C#N)C(C)=[N+]2C1=C(c1ccc(O)cc1OCC(=O)O)c1c(C)c(C#N)c(C)n1[B-]2(F)F [Compound 4, 2,6-dicyano-8-(4-hydroxy-2-carboxymethoxyphenyl)-1,3,5,7-tetramethyl-4,4-difluoro-4-bora-3a,4a-diaza-s-indacene]",fluorescence imaging of peroxynitrite in cells,HeLa cells,fluorescence imaging of peroxynitrite was performable
same,fluorescence after addition of hydrogen peroxide,[1],did not emit fluorescence at all
same,fluorescence after addition of hydroxyl radical,[2],did not emit fluorescence at all
same,fluorescence after addition of peroxynitrite,"[3]; 10 μmol/L Compound 4, pH 7.4, peroxynitrite 10 μmol/L, 3 minutes",emitted intense fluorescence
same,selectivity to peroxynitrite over other reactive oxygen species,"[3]; compared with hydrogen peroxide, singlet oxygen, hydroxyl radical, hypochlorite ion, nitrogen monoxide",high selectivity to peroxynitrite
same,fluorescence after addition of singlet oxygen,[4],did not emit fluorescence at all
same,fluorescence after addition of hypochlorite ion,[5],did not emit fluorescence at all
same,fluorescence after addition of nitrogen monoxide,[6],did not emit fluorescence at all
same,change of fluorescence intensity on addition of peroxynitrite,[7],peroxynitrite addition amount-dependent increase in fluorescence intensity was observed
